Measurements taken from patent US6358886B1, “6-Substituted 2,4-diamino-1,3,5-triazine derivatives having at least two asymmetrically substituted carbon atoms, the production thereof, and their use as herbicides” (Bayer Aktienegesellschaft, priority 1998, dated 2002).

Experiments:
Assay type in all cases: in vivo
Amaranthus [1] = experiment: Pre-emergence test/greenhouse; conditions: after three weeks
Experimental: (§1) Solvent: 5 parts by weight of acetone
(§2) Emulsifier: 1 part by weight of alkylaryl polyglycol ether
(§3) To produce a suitable preparation of active compound, 1 part by weight of active compound is mixed with the stated amount of solvent, the stated amount of emulsifier is added and the concentrate is diluted with water to the desired concentration.
(§4) Seeds of the test plants are sown in normal soil. After about 24 hours, the soil is sprayed with the preparation of active compound such that the particular amounts of active compound desired are applied per unit area. The concentration of the spray liquor is chosen so that the particular amounts of active compound desired are applied in 1000 l of water/ha.
(§5) After three weeks, the degree of damage to the plants is rated in % damage in comparison to the development of the untreated control.
(§6) 0%=no effect (like untreated control)

Abutilon [2] = experiment: Pre-emergence test/greenhouse; conditions: after three weeks
Experimental: as §1, §2, §3, §4, §5, §6

Maize = experiment: Pre-emergence test/greenhouse; conditions: after three weeks, crop plant
Experimental: as §1, §2, §3, §4, §5, §6

Alopecurus = experiment: Pre-emergence test/greenhouse; conditions: after three weeks
Experimental: as §1, §2, §3, §4, §5, §6

Setaria [3] = experiment: Pre-emergence test/greenhouse; conditions: after three weeks
Experimental: as §1, §2, §3, §4, §5, §6

Galium = experiment: Pre-emergence test/greenhouse; conditions: after three weeks
Experimental: as §1, §2, §3, §4, §5, §6

Sinapis [4] = experiment: Pre-emergence test/greenhouse; conditions: after three weeks
Experimental: as §1, §2, §3, §4, §5, §6

weeds [5] = experiment: Post-emergence test; conditions: result in words
Experimental: as §1, §2, §3
as §4, with “Test plants which have a height” for “Seeds”, “5-15 cm” for “the test plants”, “are” for “are sown in normal soil. After about 24 hours, the soil is”
as §5, §6

[6] = test system: crop plants, such as, for example, sunflowers; experiment: Pre-emergence test, crop tolerance; conditions: result in words
Experimental: as §1, §2, §3, §4, §5, §6

Amaranthus [7] = experiment: Post-emergence test/greenhouse; conditions: after three weeks
Experimental: as §1, §2, §3
as §4, with “Test plants which have a height” for “Seeds”, “5-15 cm” for “the test plants”, “are” for “are sown in normal soil. After about 24 hours, the soil is”
as §5, §6

Abutilon [8] = experiment: Post-emergence test/greenhouse; conditions: after three weeks
Experimental: as §1, §2, §3
as §4, with “Test plants which have a height” for “Seeds”, “5-15 cm” for “the test plants”, “are” for “are sown in normal soil. After about 24 hours, the soil is”
as §5, §6

Xanthium = experiment: Post-emergence test/greenhouse; conditions: after three weeks
Experimental: as §1, §2, §3
as §4, with “Test plants which have a height” for “Seeds”, “5-15 cm” for “the test plants”, “are” for “are sown in normal soil. After about 24 hours, the soil is”
as §5, §6

Setaria [9] = experiment: Post-emergence test/greenhouse
Experimental: as §1, §2, §3
as §4, with “Test plants which have a height” for “Seeds”, “5-15 cm” for “the test plants”, “are” for “are sown in normal soil. After about 24 hours, the soil is”
as §5, §6

weeds [10] = experiment: Pre-emergence test; conditions: result in words
Experimental: as §1, §2, §3, §4, §5, §6

Sinapis [11] = experiment: Post-emergence test/greenhouse; conditions: Table A-3, 1000 g of ai./ha, after three weeks
Experimental: as §1, §2, §3
as §4, with “Test plants which have a height” for “Seeds”, “5-15 cm” for “the test plants”, “are” for “are sown in normal soil. After about 24 hours, the soil is”
as §5, §6

[12] = Table A-3, 1000 g of ai./ha, after three weeks

Structure (SMILES): CCC(COc1cc(C)cc(C)c1)Nc1nc(N)nc([C@@H](C)O)n1 (mixture of isomers) [Example 2]
- degree of damage, Amaranthus (Amaranthus [1]; Table B-2, 1000 g of ai./ha): 80%
- degree of damage, Abutilon (Abutilon [2]; Table B-2, 1000 g of ai./ha): 100%
- degree of damage, Maize (Maize; Table B-2, 1000 g of ai./ha): 20%
- degree of damage, Alopecurus (Alopecurus; Table B-2, 1000 g of ai./ha): 100%
- degree of damage, Setaria (Setaria [3]; Table B-2, 1000 g of ai./ha): 100%

Structure (SMILES): CCC(COc1cc(C)cc(C)c1)Nc1nc(N)nc([C@H](C)O)n1 (mixture of isomers) [Example 3]
- degree of damage, Amaranthus (Amaranthus [1]; Table B-3, 2000 g of ai./ha): 100%
- degree of damage, Abutilon (Abutilon [2]; Table B-3, 2000 g of ai./ha): 100%
- degree of damage, Galium (Galium; Table B-3, 2000 g of ai./ha): 100%
- degree of damage, Sinapis (Sinapis [4]; Table B-3, 2000 g of ai./ha): 100%
- degree of damage, Setaria (Setaria [3]; Table B-3, 2000 g of ai./ha): 100%

Structure (SMILES): CCC(COc1cc(C)cc(C)c1)Nc1nc(N)nc([C@H](C)Cl)n1 (mixture of isomers) [Example 4]
- degree of damage, Amaranthus (Amaranthus [1]; Table B-3, 2000 g of ai./ha): 95%
- degree of damage, Abutilon (Abutilon [2]; Table B-3, 2000 g of ai./ha): 100%
- degree of damage, Galium (Galium; Table B-3, 2000 g of ai./ha): 100%
- degree of damage, Sinapis (Sinapis [4]; Table B-3, 2000 g of ai./ha): 100%
- degree of damage, Alopecurus (Alopecurus; Table B-3, 2000 g of ai./ha): 100%
- degree of damage, Setaria (Setaria [3]; Table B-3, 2000 g of ai./ha): 100%

Structure (SMILES): CCC(COc1cc(C)cc(C)c1)Nc1nc(N)nc([C@@H](C)Cl)n1 (mixture of isomers) [Example 5]
- degree of damage, Abutilon (Abutilon [2]; Table B-1, 1000 g of ai./ha): 100%
- degree of damage, Galium (Galium; Table B-1, 1000 g of ai./ha): 100%
- degree of damage, Maize (Maize; Table B-1, 1000 g of ai./ha): 20%
- degree of damage, Setaria (Setaria [3]; Table B-1, 1000 g of ai./ha): 100%

Structure (SMILES): CCC(COc1ccccc1)Nc1nc(N)nc([C@H](C)Cl)n1 (mixture of isomers) [Example 7]
- degree of damage, Amaranthus (Amaranthus [1]; Table B-3, 1000 g of ai./ha): 100%
- degree of damage, Abutilon (Abutilon [2]; Table B-3, 1000 g of ai./ha): 100%
- degree of damage, Galium (Galium; Table B-3, 1000 g of ai./ha): 100%
- degree of damage, Sinapis (Sinapis [4]; Table B-3, 1000 g of ai./ha): 100%
- degree of damage, Alopecurus (Alopecurus; Table B-3, 1000 g of ai./ha): 95%
- degree of damage, Setaria (Setaria [3]; Table B-3, 1000 g of ai./ha): 95%

Structure (SMILES): CCC(=O)Nc1nc(NC(CC)COc2ccccc2)nc([C@H](C)Cl)n1 (mixture of isomers) [Example 9]
- degree of damage, Amaranthus (Amaranthus [1]; Table B-2, 1000 g of ai./ha): 100%
- degree of damage, Abutilon (Abutilon [2]; Table B-2, 1000 g of ai./ha): 95%
- degree of damage, Sinapis (Sinapis [4]; Table B-2, 1000 g of ai./ha): 100%
- degree of damage, Maize (Maize; Table B-2, 1000 g of ai./ha): 20%
- degree of damage, Alopecurus (Alopecurus; Table B-2, 1000 g of ai./ha): 95%

Structure (SMILES): CCC(CCc1ccsc1)Nc1nc(N)nc([C@H](C)Cl)n1 (mixture of isomers) [Example 15]
- degree of damage, Amaranthus (Amaranthus [1]; Table B-3, 1000 g of ai./ha): 100%
- degree of damage, Abutilon (Abutilon [2]; Table B-3, 1000 g of ai./ha): 100%
- degree of damage, Galium (Galium; Table B-3, 1000 g of ai./ha): 100%
- degree of damage, Sinapis (Sinapis [4]; Table B-3, 1000 g of ai./ha): 100%
- degree of damage, Alopecurus (Alopecurus; Table B-3, 1000 g of ai./ha): 100%
- degree of damage, Setaria (Setaria [3]; Table B-3, 1000 g of ai./ha): 100%

Structure (SMILES): C[C@H](Nc1nc(N)nc([C@@H](C)O)n1)c1ccccc1 [Example 1, 2-amino-4-(R)-(1-hydroxyethyl)-6-(S)-(1-phenyl-ethylamino)-1,3,5-triazine]
- activity against weeds (weeds [5]): strong activity
- tolerance by crop plants [6]: tolerated well
- degree of damage, Amaranthus (Amaranthus [7]; Table A-1, 1000 g of ai./ha): 100%
- degree of damage, Abutilon (Abutilon [8]; Table A-1, 1000 g of ai./ha): 80%
- degree of damage, Xanthium (Xanthium; Table A-1, 1000 g of ai./ha): 95%
- degree of damage, Setaria (Setaria [9]; Table A-1, 1000 g of ai./ha, rated after three weeks, 0%=no effect, 100%=total destruction): 90%
- activity against weeds (weeds [10]): strong activity

Structure (SMILES): C[C@H](Nc1nc(N)nc([C@@H](C)Cl)n1)c1ccccc1 [Example 18]
- activity against weeds (weeds [5]): strong activity
- degree of damage, Amaranthus (Amaranthus [7]; Table A-3, 1000 g of ai./ha): 100%
- degree of damage, Abutilon (Abutilon [8]; Table A-3, 1000 g of ai./ha): 100%
- degree of damage, Sinapis (Sinapis [11]): 100%
- degree of damage, Xanthium (Xanthium; Table A-3, 1000 g of ai./ha): 100%
- degree of damage, Setaria (Setaria [9]; [12]): 100%

Structure (SMILES): CC[C@H](Nc1nc(N)nc([C@H](C)Cl)n1)c1ccccc1 [Example 22]
- activity against weeds (weeds [5]): strong activity
- degree of damage, Amaranthus (Amaranthus [7]; Table A-3, 1000 g of ai./ha): 100%
- degree of damage, Abutilon (Abutilon [8]; Table A-3, 1000 g of ai./ha): 95%
- degree of damage, Sinapis (Sinapis [11]): 100%
- degree of damage, Xanthium (Xanthium; Table A-3, 1000 g of ai./ha): 100%
- degree of damage, Setaria (Setaria [9]; [12]): 95%

Structure (SMILES): CC[C@H](Nc1nc(N)nc([C@@H](C)Cl)n1)c1ccccc1 [Example 23]
- activity against weeds (weeds [5]): strong activity
- degree of damage, Amaranthus (Amaranthus [7]; Table A-3, 1000 g of ai./ha): 100%
- degree of damage, Abutilon (Abutilon [8]; Table A-3, 1000 g of ai./ha): 95%
- degree of damage, Sinapis (Sinapis [11]): 100%
- degree of damage, Xanthium (Xanthium; Table A-3, 1000 g of ai./ha): 100%
- degree of damage, Setaria (Setaria [9]; [12]): 80%
